According to PMC5097156, “Potent and selective chemical probe of hypoxic signalling downstream of HIF-α hydroxylation via VHL inhibition” (Nature Communications, 2016):

Assays:
Test in all cases: biochemical
Set-up in all cases: Dundee MRC-PPU Express kinase screen, remaining kinase activity
Settings in all cases: read-out: Mean % of remaining kinase activity (±sd)
[1] = biological target: T1, AMPK (hum) (Homo sapiens, UniProt Q13131)
T1 construct: gene PRKAA1

[2] = biological target: T2, Aurora B (Homo sapiens, UniProt Q96GD4)
T2 construct: gene AURKB

[3] = biological target: T3, CK1δ (Homo sapiens, UniProt P48730)
T3 construct: gene CSNK1D

[4] = biological target: T4, CK2 (Homo sapiens, UniProt P68400)
T4 construct: gene CSNK2A1

[5] = biological target: DYRK1A (Homo sapiens, UniProt Q13627)
[6] = biological target: T5, EPH-A2 (Homo sapiens, UniProt P29317)
T5 construct: gene EPHA2

[7] = biological target: GSK3b (Homo sapiens, UniProt P49841)
[8] = biological target: HIPK2 (Homo sapiens, UniProt Q9H2X6)
[9] = biological target: T6, IGF-1R (Homo sapiens, UniProt P08069)
T6 construct: gene IGF1R

[10] = biological target: IRAK4 (Homo sapiens, UniProt Q9NWZ3)
[11] = biological target: JAK3 (Homo sapiens, UniProt P52333)
[12] = biological target: T7, LKB1 (Homo sapiens, UniProt Q15831)
T7 construct: gene STK11

[13] = biological target: T8, MLK3 (Homo sapiens, UniProt Q16584)
T8 construct: gene MAP3K11

[14] = biological target: T9, MST2 (Homo sapiens, UniProt Q13188)
T9 construct: gene STK3

[15] = biological target: NEK6 (Homo sapiens, UniProt Q9HC98)
[16] = biological target: T10, PDK1 (Homo sapiens, UniProt O15530)
T10 construct: gene PDPK1

[17] = biological target: PIM1 (Homo sapiens, UniProt P11309)
[18] = biological target: T11, PKA (Homo sapiens, UniProt P17612)
T11 construct: gene PRKACA

[19] = biological target: T12, PKD1 (Homo sapiens, UniProt Q15139)
T12 construct: gene PRKD1

[20] = biological target: PLK1 (Homo sapiens, UniProt P53350)
[21] = biological target: T13, PRK2 (Homo sapiens, UniProt Q16513)
T13 construct: gene PKN2

[22] = biological target: T14, ROCK 2 (Homo sapiens, UniProt O75116)
T14 construct: gene ROCK2

[23] = biological target: T15, RSK1 (Homo sapiens, UniProt Q15418)
T15 construct: gene RPS6KA1

[24] = biological target: SRPK1 (Homo sapiens, UniProt Q96SB4)
[25] = biological target: SYK (Homo sapiens, UniProt P43405)
[26] = biological target: Src (Homo sapiens, UniProt P12931)
[27] = biological target: T16, TAK1 (Homo sapiens, UniProt O43318)
T16 construct: gene MAP3K7

[28] = biological target: TTK (Homo sapiens, UniProt P33981)
[29] = biological target: T17, TrkA (Homo sapiens, UniProt P04629)
T17 construct: gene NTRK1

T16 sequence (O43318 whole entry): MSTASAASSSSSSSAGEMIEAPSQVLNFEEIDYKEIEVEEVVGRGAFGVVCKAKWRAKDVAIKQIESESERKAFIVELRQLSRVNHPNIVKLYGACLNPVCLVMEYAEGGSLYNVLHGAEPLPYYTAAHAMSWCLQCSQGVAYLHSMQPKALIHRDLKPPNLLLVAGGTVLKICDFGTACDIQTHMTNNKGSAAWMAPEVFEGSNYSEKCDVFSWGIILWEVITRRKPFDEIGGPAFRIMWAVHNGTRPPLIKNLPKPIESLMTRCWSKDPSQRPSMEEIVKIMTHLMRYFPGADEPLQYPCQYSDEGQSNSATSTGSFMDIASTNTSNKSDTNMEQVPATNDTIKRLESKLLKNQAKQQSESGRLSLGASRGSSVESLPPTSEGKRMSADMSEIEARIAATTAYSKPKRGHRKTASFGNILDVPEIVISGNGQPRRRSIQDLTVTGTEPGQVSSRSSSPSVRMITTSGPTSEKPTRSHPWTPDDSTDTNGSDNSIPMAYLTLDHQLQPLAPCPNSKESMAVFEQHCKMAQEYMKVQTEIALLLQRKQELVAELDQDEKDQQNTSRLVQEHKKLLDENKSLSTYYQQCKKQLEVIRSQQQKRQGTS
T14 sequence (O75116 whole entry): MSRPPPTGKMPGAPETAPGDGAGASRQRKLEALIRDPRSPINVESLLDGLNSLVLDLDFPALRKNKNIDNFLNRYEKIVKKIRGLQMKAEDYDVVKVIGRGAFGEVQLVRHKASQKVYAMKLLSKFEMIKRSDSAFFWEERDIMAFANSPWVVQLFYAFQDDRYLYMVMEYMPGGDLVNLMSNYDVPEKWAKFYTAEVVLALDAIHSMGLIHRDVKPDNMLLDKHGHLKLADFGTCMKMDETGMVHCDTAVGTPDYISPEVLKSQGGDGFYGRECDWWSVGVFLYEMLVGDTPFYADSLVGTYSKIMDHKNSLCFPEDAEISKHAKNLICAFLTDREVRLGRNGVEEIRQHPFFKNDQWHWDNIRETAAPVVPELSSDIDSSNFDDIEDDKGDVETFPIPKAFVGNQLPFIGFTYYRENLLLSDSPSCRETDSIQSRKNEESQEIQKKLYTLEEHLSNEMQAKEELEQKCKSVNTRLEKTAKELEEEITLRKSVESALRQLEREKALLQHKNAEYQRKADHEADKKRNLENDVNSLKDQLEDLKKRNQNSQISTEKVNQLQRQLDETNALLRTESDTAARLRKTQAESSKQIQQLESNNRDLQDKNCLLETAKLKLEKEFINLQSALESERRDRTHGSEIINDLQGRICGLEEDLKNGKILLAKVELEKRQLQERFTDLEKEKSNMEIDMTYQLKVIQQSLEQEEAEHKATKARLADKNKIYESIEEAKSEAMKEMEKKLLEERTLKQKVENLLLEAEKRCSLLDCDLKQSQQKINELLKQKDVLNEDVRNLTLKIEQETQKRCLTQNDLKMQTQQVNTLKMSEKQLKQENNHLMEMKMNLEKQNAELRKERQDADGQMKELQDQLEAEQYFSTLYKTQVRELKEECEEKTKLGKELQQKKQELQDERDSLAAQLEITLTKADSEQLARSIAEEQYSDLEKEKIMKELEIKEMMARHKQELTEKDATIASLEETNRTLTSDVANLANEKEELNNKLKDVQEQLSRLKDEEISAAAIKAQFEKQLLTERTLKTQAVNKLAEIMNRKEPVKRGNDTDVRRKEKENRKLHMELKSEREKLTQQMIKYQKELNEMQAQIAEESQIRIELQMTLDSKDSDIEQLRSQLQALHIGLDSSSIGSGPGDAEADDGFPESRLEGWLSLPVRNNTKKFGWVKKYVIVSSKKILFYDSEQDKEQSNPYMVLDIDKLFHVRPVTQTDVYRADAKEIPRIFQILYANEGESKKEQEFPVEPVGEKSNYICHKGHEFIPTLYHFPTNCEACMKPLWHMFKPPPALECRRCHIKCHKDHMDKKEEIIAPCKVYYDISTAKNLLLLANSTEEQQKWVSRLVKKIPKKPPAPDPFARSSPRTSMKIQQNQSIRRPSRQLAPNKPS
Chain of HIPK2 (Q9H2X6 whole entry): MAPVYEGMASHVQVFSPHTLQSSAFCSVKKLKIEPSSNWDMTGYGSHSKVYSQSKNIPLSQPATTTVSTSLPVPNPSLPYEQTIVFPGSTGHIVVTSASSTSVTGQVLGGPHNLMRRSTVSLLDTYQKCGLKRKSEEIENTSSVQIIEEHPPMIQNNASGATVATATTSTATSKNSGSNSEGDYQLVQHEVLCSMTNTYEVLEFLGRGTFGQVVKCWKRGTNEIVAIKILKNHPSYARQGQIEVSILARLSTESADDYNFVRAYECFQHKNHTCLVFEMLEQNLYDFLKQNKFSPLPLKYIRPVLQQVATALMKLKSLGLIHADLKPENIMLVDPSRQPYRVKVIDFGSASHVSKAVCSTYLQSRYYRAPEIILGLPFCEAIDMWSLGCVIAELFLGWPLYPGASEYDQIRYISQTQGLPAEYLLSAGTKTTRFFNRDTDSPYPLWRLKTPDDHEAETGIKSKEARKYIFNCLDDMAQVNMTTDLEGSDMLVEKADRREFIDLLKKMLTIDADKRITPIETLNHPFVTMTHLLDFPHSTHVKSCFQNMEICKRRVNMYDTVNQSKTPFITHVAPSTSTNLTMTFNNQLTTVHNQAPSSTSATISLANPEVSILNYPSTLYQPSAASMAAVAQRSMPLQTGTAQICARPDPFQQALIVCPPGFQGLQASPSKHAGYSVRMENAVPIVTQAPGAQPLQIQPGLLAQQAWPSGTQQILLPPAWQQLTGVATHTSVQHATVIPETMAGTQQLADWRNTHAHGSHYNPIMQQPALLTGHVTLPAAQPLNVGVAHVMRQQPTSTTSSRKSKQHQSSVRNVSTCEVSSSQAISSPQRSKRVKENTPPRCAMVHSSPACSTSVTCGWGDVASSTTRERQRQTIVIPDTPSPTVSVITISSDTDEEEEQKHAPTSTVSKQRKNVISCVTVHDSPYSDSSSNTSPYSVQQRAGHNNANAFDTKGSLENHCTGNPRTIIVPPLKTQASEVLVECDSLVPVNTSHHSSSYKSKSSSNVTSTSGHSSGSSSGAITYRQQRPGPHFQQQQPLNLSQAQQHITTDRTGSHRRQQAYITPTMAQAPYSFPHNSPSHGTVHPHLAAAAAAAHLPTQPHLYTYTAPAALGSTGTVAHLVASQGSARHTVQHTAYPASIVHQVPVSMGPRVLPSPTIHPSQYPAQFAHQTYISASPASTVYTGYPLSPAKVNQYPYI
T15 sequence (Q15418 whole entry): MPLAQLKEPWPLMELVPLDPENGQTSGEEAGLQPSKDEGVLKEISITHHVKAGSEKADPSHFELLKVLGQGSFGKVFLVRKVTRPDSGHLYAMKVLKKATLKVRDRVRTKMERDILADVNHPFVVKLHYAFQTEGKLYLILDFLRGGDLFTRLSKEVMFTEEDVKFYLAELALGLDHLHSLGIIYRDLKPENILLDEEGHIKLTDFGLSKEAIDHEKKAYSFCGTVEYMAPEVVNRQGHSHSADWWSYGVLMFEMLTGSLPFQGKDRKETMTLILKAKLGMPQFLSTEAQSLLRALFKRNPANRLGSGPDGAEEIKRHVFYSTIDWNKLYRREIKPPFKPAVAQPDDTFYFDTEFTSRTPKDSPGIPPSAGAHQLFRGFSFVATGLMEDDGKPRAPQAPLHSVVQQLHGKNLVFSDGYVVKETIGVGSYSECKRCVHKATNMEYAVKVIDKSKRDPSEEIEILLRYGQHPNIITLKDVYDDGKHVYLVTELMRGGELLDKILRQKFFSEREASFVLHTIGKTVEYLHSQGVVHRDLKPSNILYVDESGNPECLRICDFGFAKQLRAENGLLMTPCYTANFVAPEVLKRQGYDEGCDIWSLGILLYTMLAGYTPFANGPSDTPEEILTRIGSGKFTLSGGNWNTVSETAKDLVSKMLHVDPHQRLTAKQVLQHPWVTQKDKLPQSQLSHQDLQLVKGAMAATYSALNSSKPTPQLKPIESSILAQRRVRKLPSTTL
Chain of IRAK4 (Q9NWZ3 whole entry): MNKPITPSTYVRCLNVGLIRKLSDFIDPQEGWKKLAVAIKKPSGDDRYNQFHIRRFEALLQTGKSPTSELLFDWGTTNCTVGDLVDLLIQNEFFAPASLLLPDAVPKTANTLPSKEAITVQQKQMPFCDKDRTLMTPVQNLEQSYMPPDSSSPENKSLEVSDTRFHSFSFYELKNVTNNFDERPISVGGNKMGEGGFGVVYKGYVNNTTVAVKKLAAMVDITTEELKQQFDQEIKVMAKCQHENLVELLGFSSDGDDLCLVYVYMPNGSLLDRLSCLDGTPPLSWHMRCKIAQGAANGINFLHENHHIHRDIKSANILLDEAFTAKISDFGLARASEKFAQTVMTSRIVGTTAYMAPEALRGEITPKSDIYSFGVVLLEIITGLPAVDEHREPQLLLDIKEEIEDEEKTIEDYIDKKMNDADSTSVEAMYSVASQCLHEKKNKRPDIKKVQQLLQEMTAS
Chain of PLK1 (P53350 whole entry): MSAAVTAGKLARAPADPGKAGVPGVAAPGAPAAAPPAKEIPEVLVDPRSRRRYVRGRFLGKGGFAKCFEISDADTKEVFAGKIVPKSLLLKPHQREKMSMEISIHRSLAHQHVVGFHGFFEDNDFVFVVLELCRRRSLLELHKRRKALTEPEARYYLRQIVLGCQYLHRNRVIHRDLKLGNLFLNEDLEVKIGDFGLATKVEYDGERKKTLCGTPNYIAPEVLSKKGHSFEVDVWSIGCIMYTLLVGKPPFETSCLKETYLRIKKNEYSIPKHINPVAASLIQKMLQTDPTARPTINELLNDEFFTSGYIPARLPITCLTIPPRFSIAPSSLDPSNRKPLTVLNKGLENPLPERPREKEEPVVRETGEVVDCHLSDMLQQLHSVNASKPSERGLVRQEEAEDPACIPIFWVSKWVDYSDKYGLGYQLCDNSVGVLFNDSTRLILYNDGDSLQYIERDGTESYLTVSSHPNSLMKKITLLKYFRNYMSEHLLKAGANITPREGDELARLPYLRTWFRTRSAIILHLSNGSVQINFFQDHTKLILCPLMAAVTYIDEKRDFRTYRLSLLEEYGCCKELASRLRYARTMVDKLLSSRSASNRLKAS

Cc1ncsc1-c1ccc(CNC(=O)[C@@H]2C[C@@H](O)CN2C(=O)[C@@H](NC(=O)C2(C#N)CC2)C(C)(C)C)cc1 [VH298]
remaining activity at 50 µM [1]: 101% | remaining activity at 50 µM [2]: 78% | remaining activity at 50 µM [3]: 99% | remaining activity at 50 µM [4]: 116% | remaining activity at 50 µM [5]: 76% | remaining activity at 50 µM [6]: 107% | remaining activity at 50 µM [7]: 107% | remaining activity at 50 µM [8]: 100% | remaining activity at 50 µM [9]: 110% | remaining activity at 50 µM [10]: 112% | remaining activity at 50 µM [11]: 99% | remaining activity at 50 µM [12]: 105% | remaining activity at 50 µM [13]: 95% | remaining activity at 50 µM [14]: 98% | remaining activity at 50 µM [15]: 106% | remaining activity at 50 µM [16]: 110% | remaining activity at 50 µM [17]: 92% | remaining activity at 50 µM [18]: 68% | remaining activity at 50 µM [19]: 108% | remaining activity at 50 µM [20]: 100% | remaining activity at 50 µM [21]: 110% | remaining activity at 50 µM [22]: 75% | remaining activity at 50 µM [23]: 94% | remaining activity at 50 µM [24]: 101% | remaining activity at 50 µM [25]: 103% | remaining activity at 50 µM [26]: 112% | remaining activity at 50 µM [27]: 111% | remaining activity at 50 µM [28]: 97% | remaining activity at 50 µM [29]: 100%
